We go through 13 compounds from patent US20130273183A1, “2-Pyrimidine Thioesters and Thiocarbonates as Skin Brightening Agents” (EASTMAN CHEMICAL COMPANY, priority 2012, published 2013).

Marks after values point to notes of the source that are not given here.

The subject of one data set is B16-F10 murine melanoma cells. The data set is described as follows: Cell viability assay (MTT). The format is cell-based. Particulars: 0.1 mmol/L; MTT; B16-F10 cells. Here is the method:
After incubating the melanocytes with test samples or control compounds as mentioned above, 330 μL of a MTT solution (5 mg/mL MTT in standard medium with no added serum or antibiotic) was added. […] After orbital shaking for 10 min at room temperature, 1 mL of the contents of each flask was transferred to microfuge tubes and centrifuged for 10 min. 200 μL of each tube were then transferred to a 96-well plate, and the relative extent of MTT reduction was determined based on the absorbance at 590 nm. […] Kojic acid, arbutin, and hydroquinone were used as positive controls.
Consider `OC[C@H]1O[C@@H](Oc2ccc(O)cc2)[C@H](O)[C@@H](O)[C@@H]1O` [Arbutin, arbutin, reference compound], for which the “Cell Viability % of control” value is recorded as 125 % of control.

For the compound `COC(=O)CSc1ncccn1` [Comparative Example 1, Methyl 2-(pyrimidin-2′-ylthio)acetate, reference compound], the “Cell Viability % of control” value is 114 % of control.

Turning to `COC(=O)CCSc1ncccn1` [Comparative Example 2, Methyl 3-(Pyrimidin-2′-ylthio)propionate, reference compound], the “Cell Viability % of control” value is 88 % of control.

With `CC(=O)Sc1ncccn1` [Example 1, Pyrimidin-2-yl Thiolacetate], the “Cell Viability % of control” value is on record as 100 % of control.

Consider `CCC(=O)Sc1ncccn1` [Example 2, Pyrimidin-2-yl Thiolpropionate], for which the “Cell Viability % of control” value is listed as 113 % of control.

Take `CCOC(=O)Sc1ncccn1` [Example 3, O-Ethyl-5-pyrimidin-2-yl Monothiolcarbonate]: the “Cell Viability % of control” value is 87 % of control.

As for `CC(C)(C)C(=O)Sc1ncccn1` [Example 5, Pyrimidin-2′-yl 2,2-Dimethylpropanethioate], the “Cell Viability % of control” value is listed as 91 % of control.

Turning to `O=C(Sc1ncccn1)c1ccccc1` [Example 6, Pyrimidin-2-yl Thiolbenzoate], the “Cell Viability % of control” value was 91 % of control.

With `O=C(Sc1ncccn1)c1cccnc1` [Example 7, S-Pyrimidin-2′-yl Pyridine-3-carbothioate], the “Cell Viability % of control” value was 101 % of control.

Regarding `O=C(Sc1ncccn1)c1ccncc1` [Example 8, S-Pyrimidin-2′-yl Pyridine-4-carbothioate], the “Cell Viability % of control” value is listed as 92 % of control.

The same data set, now with this note: 0.25 mmol/L; MTT; B16-F10 cells; no replication.
On to `Sc1ncccn1` [2-Mercapto-Pyrimidine, 2-Mercaptopyrimidine, reference compound], for which the “Cell Viability % of control” value is recorded as 81** % of control.

Staying with this data set, now noted: 0.5 mmol/L (footnote *); MTT; B16-F10 cells.
`Sc1ncccn1` [2-Mercapto-Pyrimidine, 2-Mercaptopyrimidine, reference compound]: the “Cell Viability % of control” value was 68* % of control.

On to `COC(=O)CCSc1ncccn1` [Comparative Example 2, Methyl 3-(Pyrimidin-2′-ylthio)propionate, reference compound], for which the “Cell Viability % of control” value is listed as 84* % of control.

On to `O=C(Sc1ncccn1)c1ccncc1` [Example 8, S-Pyrimidin-2′-yl Pyridine-4-carbothioate], for which the “Cell Viability % of control” value is given as 36* % of control.

Still in this data set, the particulars now being: 1.0 mmol/L; MTT; B16-F10 cells.
As for `OC[C@H]1O[C@@H](Oc2ccc(O)cc2)[C@H](O)[C@@H](O)[C@@H]1O` [Arbutin, arbutin, reference compound], the “Cell Viability % of control” value is 134 % of control.

As to `COC(=O)CSc1ncccn1` [Comparative Example 1, Methyl 2-(pyrimidin-2′-ylthio)acetate, reference compound], the “Cell Viability % of control” value is on record as 117 % of control.

In the case of `CC(=O)Sc1ncccn1` [Example 1, Pyrimidin-2-yl Thiolacetate], the “Cell Viability % of control” value was 6.6 % of control.

Take `CCC(=O)Sc1ncccn1` [Example 2, Pyrimidin-2-yl Thiolpropionate]: the “Cell Viability % of control” value is recorded as 13.6 % of control.

On to `CCOC(=O)Sc1ncccn1` [Example 3, O-Ethyl-5-pyrimidin-2-yl Monothiolcarbonate], for which the “Cell Viability % of control” value is 32 % of control.

As to `CC(C)(C)C(=O)Sc1ncccn1` [Example 5, Pyrimidin-2′-yl 2,2-Dimethylpropanethioate], the “Cell Viability % of control” value is reported as 7 % of control.

As for `O=C(Sc1ncccn1)c1ccccc1` [Example 6, Pyrimidin-2-yl Thiolbenzoate], the “Cell Viability % of control” value is given as 69 % of control.

As to `O=C(Sc1ncccn1)c1cccnc1` [Example 7, S-Pyrimidin-2′-yl Pyridine-3-carbothioate], the “Cell Viability % of control” value is given as 3.5 % of control.

The same data set, now with this note: mouse, 0.1 mmol/L.
On to `O=c1cc(CO)occ1O` [Kojic acid, reference compound], for which the “Cell Viability % of control” value was 116 % of control.

Staying with this data set, now noted: mouse, 0.5 mmol/L.
For the compound `Oc1ccc(O)cc1` [Hydroquinone, hydroquinone, reference compound], the “Cell Viability % of control” value is listed as 3* % of control.

The data set is the same for the next values; noted with them: mouse, 1 mmol/L.
For `O=c1cc(CO)occ1O` [Kojic acid, reference compound], the “Cell Viability % of control” value is 92 % of control.

For a further data set, the system named is B16-F10 murine melanoma cells. The data set is described as follows: Melanogenesis inhibition assay (melanin content, absorbance at 450 nm). The data set is classed as cell-based. Particulars: Mus musculus, 72 h, 0.1 mmol/L, read-out: Melanogenesis % of control. As for the experimental part: Melanocytes (B16-F10/CRL-6475 murine melanoma cells, purchased from ATCC) were cultured in Dulbecco's Modified Eagle's Medium (DMEM)/Ham's F-12 50:50 mix with L-glutamine w/out phenol red/10% (v/v) newborn calf serum/1% (v/v) 100× Invitrogen Cat #15240-062 Antibiotic-Antimycotic at 37° C. (i.e., the growth medium) in a humidified atmosphere with 5% CO2. The cells were seeded into 12.5 cm^2 tissue culture flasks at a concentration of 1.0×10^5 cells/mL. A 3-mL cell suspension (seed medium) was added to each flask. The test compounds were dissolved in dimethyl sulfoxide (DMSO) at a concentration of 0.5 M. This 0.5 M stock was used to prepare various concentrations of the test compounds in growth medium, with the final concentration of DMSO at 0.2% by weight. Growth medium with diluted test compound is referred to as the dose medium. The controls were treated in the same manner, but without the test compound. After 24 hrs of incubation, the seed medium was replaced with 3 mL of dose medium (growth medium with various concentrations of test samples or control compounds). The dose medium was […] day, and the incubation continued for an additional 2 days. The dose medium was removed. The cells were dissolved in 1 mL of 1 N NaOH during incubation at 80° C. for 10 min. Samples of extracted melanin were transferred to a 96-well plate, and the absorbance was read at 450 nm. Each experiment was repeated three times. Kojic acid, arbutin, and hydroquinone were used as positive controls.
As to `OC[C@H]1O[C@@H](Oc2ccc(O)cc2)[C@H](O)[C@@H](O)[C@@H]1O` [Arbutin, arbutin, reference compound], the activity at 100 µM came out at 92%.

As to `COC(=O)CSc1ncccn1` [Comparative Example 1, Methyl 2-(pyrimidin-2′-ylthio)acetate, reference compound], the activity at 100 µM is 115%.

As for `COC(=O)CCSc1ncccn1` [Comparative Example 2, Methyl 3-(Pyrimidin-2′-ylthio)propionate, reference compound], the activity at 100 µM worked out at 98%.

`CC(=O)Sc1ncccn1` [Example 1, Pyrimidin-2-yl Thiolacetate]: the activity at 100 µM turned out to be 71%.

In the case of `CCC(=O)Sc1ncccn1` [Example 2, Pyrimidin-2-yl Thiolpropionate], the activity at 100 µM amounted to 67%.

In the case of `CCOC(=O)Sc1ncccn1` [Example 3, O-Ethyl-5-pyrimidin-2-yl Monothiolcarbonate], the activity at 100 µM was found to be 81%.

With `CC(C)(C)C(=O)Sc1ncccn1` [Example 5, Pyrimidin-2′-yl 2,2-Dimethylpropanethioate], the activity at 100 µM was 66%.

Consider `O=C(Sc1ncccn1)c1ccccc1` [Example 6, Pyrimidin-2-yl Thiolbenzoate], for which the activity at 100 µM is 69%.

Consider `O=C(Sc1ncccn1)c1cccnc1` [Example 7, S-Pyrimidin-2′-yl Pyridine-3-carbothioate], for which the activity at 100 µM was 72%.

`O=C(Sc1ncccn1)c1ccncc1` [Example 8, S-Pyrimidin-2′-yl Pyridine-4-carbothioate]: the activity at 100 µM came out at 70%.

Take `O=c1cc(CO)occ1O` [Kojic acid, reference compound]: the activity at 100 µM worked out at 94%.

Staying with this data set, now noted: Mus musculus, 72 h, 0.25 mmol/L, read-out: Melanogenesis % of control.
As to `Sc1ncccn1` [2-Mercapto-Pyrimidine, 2-Mercaptopyrimidine, reference compound], the activity at 250 µM stood at 42%.

Still in this data set, the particulars now being: Mus musculus, 72 h, 0.5 mmol/L (footnote *), read-out: Melanogenesis % of control.
With `Sc1ncccn1` [2-Mercapto-Pyrimidine, 2-Mercaptopyrimidine, reference compound], the activity at 500 µM turned out to be 35%.

As to `COC(=O)CCSc1ncccn1` [Comparative Example 2, Methyl 3-(Pyrimidin-2′-ylthio)propionate, reference compound], the activity at 500 µM was determined as 96%.

Regarding `O=C(Sc1ncccn1)c1ccncc1` [Example 8, S-Pyrimidin-2′-yl Pyridine-4-carbothioate], the activity at 500 µM is 38%.

As to `Oc1ccc(O)cc1` [Hydroquinone, hydroquinone, reference compound], the activity at 500 µM came to 33%.

The data set is the same for the next values; noted with them: Mus musculus, 72 h, 1.0 mmol/L, read-out: Melanogenesis % of control.
As to `OC[C@H]1O[C@@H](Oc2ccc(O)cc2)[C@H](O)[C@@H](O)[C@@H]1O` [Arbutin, arbutin, reference compound], the activity at 1000 µM is 83%.

Take `COC(=O)CSc1ncccn1` [Comparative Example 1, Methyl 2-(pyrimidin-2′-ylthio)acetate, reference compound]: the activity at 1000 µM was found to be 98%.

With `CC(=O)Sc1ncccn1` [Example 1, Pyrimidin-2-yl Thiolacetate], the activity at 1000 µM came to 33%.

On to `CCC(=O)Sc1ncccn1` [Example 2, Pyrimidin-2-yl Thiolpropionate], for which the activity at 1000 µM was 36%.

Take `CCOC(=O)Sc1ncccn1` [Example 3, O-Ethyl-5-pyrimidin-2-yl Monothiolcarbonate]: the activity at 1000 µM was 36%.

`CC(C)(C)C(=O)Sc1ncccn1` [Example 5, Pyrimidin-2′-yl 2,2-Dimethylpropanethioate]: the activity at 1000 µM was 28%.

As for `O=C(Sc1ncccn1)c1ccccc1` [Example 6, Pyrimidin-2-yl Thiolbenzoate], the activity at 1000 µM was determined as 39%.

Consider `O=C(Sc1ncccn1)c1cccnc1` [Example 7, S-Pyrimidin-2′-yl Pyridine-3-carbothioate], for which the activity at 1000 µM came to 27%.

For `O=c1cc(CO)occ1O` [Kojic acid, reference compound], the activity at 1000 µM turned out to be 86%.
